Laboratory results reported in ChEMBL document CHEMBL1130969, “Potent 3-spiropiperidine growth hormone secretagogues” (Bioorg Med Chem Lett, 1998).
pEC50: −log10 of the molar value.

molecular target: Growth hormone secretagogue receptor type 1 (Rattus norvegicus, UniProt O08725); assay: In vitro growth hormone release was determined in rat pituitary cell assay; assay type: functional, cell-based, Pituitary gland cell; settings: not given
Sequence (O08725 whole entry): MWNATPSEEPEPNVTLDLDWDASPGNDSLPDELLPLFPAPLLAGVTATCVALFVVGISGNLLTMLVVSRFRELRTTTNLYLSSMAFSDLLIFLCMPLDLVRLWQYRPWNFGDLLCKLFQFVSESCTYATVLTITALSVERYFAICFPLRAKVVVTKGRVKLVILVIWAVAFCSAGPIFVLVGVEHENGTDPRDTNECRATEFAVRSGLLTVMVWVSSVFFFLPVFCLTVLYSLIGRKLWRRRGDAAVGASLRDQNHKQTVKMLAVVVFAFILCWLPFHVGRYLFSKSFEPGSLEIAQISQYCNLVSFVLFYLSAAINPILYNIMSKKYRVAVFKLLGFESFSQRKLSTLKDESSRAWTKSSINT

| Compound | pEC50 |
| --- | --- |
| CC(C)(N)C(=O)N[C@H](Cc1c[nH]c2ccccc12)C(=O)N1CCC2(CC1)Cc1ccccc1C2=O | 7.38 |
| CC(C)(N)C(=O)N[C@H](Cc1c[nH]c2ccccc12)C(=O)N1CCCC2(Cc3ccccc3C2=O)C1 (stereo partly drawn) | 7.70 |
| CC(C)(N)C(=O)N[C@H](Cc1c[nH]c2ccccc12)C(=O)N1CCCC2(CC(O)c3ccccc3O2)C1 (stereo partly drawn) | 8.92 |
| CC(C)(N)C(=O)N[C@H](Cc1c[nH]c2ccccc12)C(=O)N1CCCC2(CC(=O)c3ccccc3O2)C1 (stereo partly drawn) | 8.74 |
| CC(C)(N)C(=O)N[C@H](Cc1c[nH]c2ccccc12)C(=O)N1CCC2(CCCc3ccccc32)CC1 | 7.18 |
| CC(C)(N)C(=O)N[C@H](Cc1c[nH]c2ccccc12)C(=O)N1CCC2(CC1)Cc1ccccc1C2O (stereo partly drawn) | 7.72 |
| CC(C)(N)C(=O)N[C@H](Cc1c[nH]c2ccccc12)C(=O)N1CCC[C@]2(CC(=O)c3ccccc3O2)C1 | 7.24 |
| CC(C)(N)C(=O)N[C@H](Cc1c[nH]c2ccccc12)C(=O)N1CCC2(CCc3ccccc3O2)CC1 | 7.60 |
| CC(C)(N)C(=O)N[C@H](Cc1c[nH]c2ccccc12)C(=O)N1CCC2(CC1)CC(=O)c1ccccc1O2 | 7.43 |
| CC(C)(N)C(=O)N[C@H](Cc1c[nH]c2ccccc12)C(=O)N1CCC2(CC1)Cc1ccccc1C2 | 7.43 |
| CC(C)(N)C(=O)N[C@H](Cc1c[nH]c2ccccc12)C(=O)N1CCCC2(CCc3ccccc32)C1 (stereo partly drawn) | 6.20 |
| CC(C)(N)C(=O)N[C@H](Cc1c[nH]c2ccccc12)C(=O)N1CCCC2(CCc3ccccc3O2)C1 (stereo partly drawn) | 8.54 |
| CC(C)(N)C(=O)N[C@H](Cc1c[nH]c2ccccc12)C(=O)N1CCC[C@@]2(CC(=O)c3ccccc3O2)C1 | 8.92 |
| CC(C)(N)C(=O)N[C@H](Cc1c[nH]c2ccccc12)C(=O)N1CCC2(CC1)CC(O)c1ccccc1O2 (stereo partly drawn) | 7.80 |
| CC(C)(N)CC(=O)N[C@@H]1CCc2ccccc2N(Cc2ccc(-c3ccccc3-c3nnn[nH]3)cc2)C1=O | 7.22 |
| CC(C)(N)C(=O)N[C@H](Cc1c[nH]c2ccccc12)C(=O)N1CCCC2(Cc3ccccc3C2)C1 | 7.22 |
| CC(C)(N)C(=O)N[C@H](Cc1c[nH]c2ccccc12)C(=O)N1CCC2(CCc3ccccc32)CC1 [L-162752] | 7.85 |

species: Rattus norvegicus; assay: In vitro growth hormone release was determined in rat pituitary cell assay; NA means not active; assay type: functional; settings: pituitary gland cell

| Compound | EC50 |
| --- | --- |
| CC(C)(N)C(=O)N[C@H](Cc1c[nH]c2ccccc12)C(=O)N1CCCC2(Cc3ccccc3C2O)C1 (stereo partly drawn) | Not Active |
